The values below come from article PMC5607274, “An iterative compound screening contest method for identifying target protein inhibitors using the tyrosine-protein kinase Yes” (Scientific Reports, 2017).

The target in the experiment is T1, human recombinant Yes [a.a. 2–543 (end)] (Homo sapiens, UniProt P07947).
T1 construct: human recombinant Yes [a.a; 2–543 (end)]; purchased BPS Bioscience 40488
The experiment in a line: ADP-Glo kinase assay, inhibition rates of Yes phosphorylation activity (first and second screening). It counts as biochemical. The note with it: first screening; mean of n = 4 wells; 10 μmol L−1 compound. As to the method:
All inhibitory assays of the phosphorylation activity of Yes were performed in accordance with the Promega Technical Manual for the ADP-Glo™ Kinase Assay (Fitchburg, WI, USA. Catalog number: V9102). The human recombinant Yes [a.a. 2–543 (end)] was purchased from BPS Bioscience (catalog number: 40488). The details of the assay protocol and reagent information are given elsewhere.
The screening was conducted in three steps consisting of the first screening, the second screening, and the IC50 determination, as can be illustrated in Fig. 1b. First, we determined the inhibition rates of the 1,991 compounds. Each compound was placed in 4 wells of a 384-well plate. In total, 80 compounds were assayed on one plate and the other wells were used for positive and negative controls. The compounds were randomly placed on plates so that compounds proposed by one group were not placed on a plate together. A mean of four inhibition rates for each compound was compared to criteria for the first screening. […] Second, the inhibition rates of the screened compounds were determined on one plate using the same procedure of the first screening, where compounds were dissolved from fresh powder. […] Screened compounds were then evaluated for their IC50 values.
On the technique in general: ADP-Glo first removes unused ATP, then detects ADP through luciferase.

SMILES strings stand for the structures.

T1 sequence (P07947 2-543): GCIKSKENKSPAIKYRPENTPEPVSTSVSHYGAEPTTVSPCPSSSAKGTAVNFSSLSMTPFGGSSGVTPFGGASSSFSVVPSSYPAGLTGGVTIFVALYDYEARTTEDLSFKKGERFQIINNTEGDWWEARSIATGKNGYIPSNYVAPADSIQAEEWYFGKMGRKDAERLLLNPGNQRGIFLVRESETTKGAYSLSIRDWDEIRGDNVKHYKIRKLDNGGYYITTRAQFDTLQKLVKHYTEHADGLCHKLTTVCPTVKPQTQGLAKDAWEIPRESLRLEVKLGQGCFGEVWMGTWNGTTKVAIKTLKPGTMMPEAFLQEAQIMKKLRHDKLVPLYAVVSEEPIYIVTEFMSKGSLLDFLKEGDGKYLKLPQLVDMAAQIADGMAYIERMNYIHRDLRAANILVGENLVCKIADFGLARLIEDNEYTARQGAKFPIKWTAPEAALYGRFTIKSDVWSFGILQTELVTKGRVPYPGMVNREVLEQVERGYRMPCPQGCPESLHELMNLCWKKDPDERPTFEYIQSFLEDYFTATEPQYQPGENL

For the compound `COc1cc(Cl)c(C)cc1NC(=O)CN(Cc1ccco1)S(=O)(=O)c1cccc(Cl)c1` [Compound Z25969255], the “First screening IR (inhibition rate)” value was determined as 38%.
In the case of `O=[N+]([O-])c1cc2c(c(CN(Cc3ccccc3)S(=O)(=O)c3cccc(C(F)(F)F)c3)c1)OCOC2` [Compound Z25980301], the “First screening IR (inhibition rate)” value worked out at 7%.
For `C=CCN(Cc1nnc(-c2ccc(Cl)cc2)o1)S(=O)(=O)c1ccc(NC(C)=O)cc1` [Compound Z26082391] the value was 3%.
In the case of `C=CCN(CC(=O)Nc1cccc(C#N)c1)S(=O)(=O)c1ccccc1F` [Compound Z26091205], the “First screening IR (inhibition rate)” value was 3%.
In the case of `Cc1ccc(C)c(S(=O)(=O)N(CC(=O)Nc2ccc(Oc3ccccc3)cc2)Cc2ccc(F)cc2)c1` [Compound Z26125608], the “First screening IR (inhibition rate)” value is listed as -6%.
For `COc1ccc(C(N)=O)c(OCc2nc3ccccc3nc2C)c1` [Compound Z26325749] the value was 35%.
On to `Cc1cccc(OCC(=O)Nc2sc3c(c2C(N)=O)CCC3)c1` [Compound Z26345967], for which the “First screening IR (inhibition rate)” value is recorded as 18%.
For `COc1cc(C(=O)Nc2c(C)cccc2C(C)C)ccc1OCc1c(C)noc1C` [Compound Z26400530] the value was 1%; for `Cc1ccc(-c2nn(-c3ccc(F)cc3)cc2C(=O)N(C)CC(=O)Nc2ccc(N3CCOCC3)cc2)cc1` [Compound Z26593504], 46%.
For `Cc1cccc(-c2nn(-c3ccccc3)cc2C(=O)N(C)CC(=O)Nc2ccc(N3CCOCC3)cc2)c1` [Compound Z26593505] the value was 2%; for `COc1ccc(C(CNC(=O)c2ccc3c(c2)NC(=O)C(C)S3)N(C)C)cc1` (centres unmarked) [Compound Z26596638], 27%.
As for `O=C(c1cn(Cc2ccccc2)nc1-c1cccnc1)N1CCN(c2ccccn2)CC1` [Compound Z26735071], the “First screening IR (inhibition rate)” value turned out to be 21%.
For the compound `O=C(CN(Cc1ccccc1)S(=O)(=O)c1ccc(Cl)cc1)N1CCN(c2ccccn2)CC1` [Compound Z26735553], the “First screening IR (inhibition rate)” value was 16%.
For `O=C(NCc1nc2ccccc2[nH]1)c1ccc(OCc2ccccc2)cc1` [Compound Z26780414] the value was 5%.
For `O=C(COc1ccccc1)NCc1nc2ccccc2[nH]1` [Compound Z26782031] the value was -12%.
For `O=C(Nc1ccc2[nH]c(=O)[nH]c2c1)c1cc2c(s1)-c1ccccc1CC2` [Compound Z26792816] the value was 4%; for `NC(=O)Nc1ccc(C(=O)NCCC(c2ccccc2)c2ccccc2)cc1` [Compound Z26815125], -8%.
On to `Cc1cccc(N2CCN(C(=O)C3CCN(C(=O)C4CC4)CC3)CC2)c1C` [Compound Z26849648], for which the “First screening IR (inhibition rate)” value is -2%.
For `CNS(=O)(=O)c1cc(C(=O)N2CCN(Cc3cc(OC)ccc3OC)CC2)ccc1Cl` [Compound Z26970092] the value was 28%.
For `CN(CC(=O)Nc1cccc(F)c1)C(=O)c1cc2ccccc2cc1O` [Compound Z26987740] the value was 21%; for `O=C(Nc1ccccc1OC(F)F)c1ccc2c(c1)C(=O)N(Cc1ccncc1)C2=O` [Compound Z27081729], 20%; for `O=C(Cc1cn2ccsc2n1)NCCN1C(=O)S/C(=C/c2cccnc2)C1=O` [Compound Z27116942], 12%.
As for `N#Cc1ccccc1S(=O)(=O)N1CCN(C(=O)/C=C/c2ccc3c(c2)OCCCO3)CC1` [Compound Z27234574], the “First screening IR (inhibition rate)” value was found to be 36%.
On to `Cc1cccc(NC(=O)CNC(=O)c2cn3c(C)cccc3n2)c1C` [Compound Z27271554], for which the “First screening IR (inhibition rate)” value is 3%.
Regarding `Cc1cc(OCC(=O)NC(C)c2ccc(-n3ccnc3)cc2)ccc1C(C)C` (centres unmarked) [Compound Z27305591], the “First screening IR (inhibition rate)” value is given as -7%.
For `COc1cc(C(=O)NC(C)c2ccc(-n3ccnc3)cc2)cc(Cl)c1OC(C)C` (centres unmarked) [Compound Z27306302] the value was 7%; for `CC(NC(=O)C(NC(=O)c1ccco1)C(C)C)c1ccc(-n2ccnc2)cc1` (centres unmarked) [Compound Z27306758], 4%.
For `Cc1ccc(C(C)C)c(OCC(=O)NC(C)c2ccc(-n3ccnc3)cc2)c1` (centres unmarked) [Compound Z27307326] the value was 11%; for `CCc1ccccc1NC(=O)CNC(=O)c1cc2ccccc2[nH]1` [Compound Z27562098], 48%.
For `CCOc1ccc(-n2c(O)c3ccc(C(=O)N=C4N=c5ccccc5=N4)cc3c2O)cc1` [Compound Z27664836] the value was -4%; for `O=C(Nc1nc2ccccc2[nH]1)c1ccc(N2CCCC2=O)cc1` [Compound Z27664887], 8%.
As for `CC(=O)c1cccc(OCC(=O)Nc2nc3ccccc3[nH]2)c1` [Compound Z27665121], the “First screening IR (inhibition rate)” value is reported as -6%.
For `O=C(COc1ccc2ccccc2c1)Nc1nc2ccccc2[nH]1` [Compound Z27666510] the value was 8%; for `COc1ccc2c(c1)c(CC(=O)N1CCN(Cc3ccccc3)CC1)c(C)n2C(=O)c1ccc(Cl)cc1` [Compound Z27764077], 10%; for `Cc1ccc(C)c(N2C(=O)c3ccc(C(=O)Nc4ccc(N5CCN(C)CC5)cc4C)cc3C2=O)c1` [Compound Z27972425], 8%.
For `COc1ccc(CN2C(=O)c3ccccc3C2=O)cc1C(=O)Nc1ccc(N2CCN(C)CC2)cc1C` [Compound Z27972767] the value was 17%; for `COc1ccc(-c2cc(C(=O)Nc3ccc(N4CCN(C)CC4)cc3C)c3ccccc3n2)cc1OC` [Compound Z27974061], 3%.
`Cc1nn(Cc2ccc(F)cc2)c2sc(C(=O)Nc3ccc(N4CCOCC4)cc3N3CCOCC3)cc12` [Compound Z28027525]: the “First screening IR (inhibition rate)” value stood at 3%.
For `O=C(Nc1ccc(N2CCOCC2)cc1N1CCOCC1)c1ccc(N2C(=O)CCC2=O)cc1` [Compound Z28028679] the value was -4%; for `Cc1ccc(-n2nc(C)c3c(C(=O)Nc4nc(CN5CCOCC5)cs4)cc(-c4ccccc4)nc32)cc1` [Compound Z28032810], -1%; for `Cc1cc(C)c(NC(=O)c2cn3c4c(c(N5CCN(C)CC5)c(F)cc4c2=O)OCC3C)c(C)c1` (centres unmarked) [Compound Z28129480], 9%.
For `Cc1nc2ccc(NC(=O)c3cc4ccccc4oc3=O)cc2s1` [Compound Z28296849] the value was 13%; for `CCOc1ccc(CCNC(=O)c2cc3ccccc3[nH]2)cc1OCC` [Compound Z28450151], -5%; for `CN1CCC(N(C)S(=O)(=O)c2ccc(NC(=O)Cc3ccc(F)cc3)cc2)CC1` [Compound Z28459327], 13%.
For `Cc1c(C(=O)Nc2ccnn2C2CCCC2)oc2c(Cl)cccc12` [Compound Z28468306] the value was 0%.
As for `CC(NC(=O)CCc1nc2ccccc2c(=O)[nH]1)c1cccc(C(F)(F)F)c1` (centres unmarked) [Compound Z28541828], the “First screening IR (inhibition rate)” value is -5%.
For `CC(NC(=O)c1ccc2nc[nH]c2c1)c1ccc(F)c(F)c1` (centres unmarked) [Compound Z28547957], the “First screening IR (inhibition rate)” value is recorded as -1%.
For `O=C(Nc1nnc(SCc2ccc(F)cc2)s1)c1cccnc1Cl` [Compound Z28653555], the “First screening IR (inhibition rate)” value is on record as 3%.
Take `N#Cc1ccc(C(=O)Nc2nc(-c3ccc(F)c(F)c3)cs2)cc1` [Compound Z28714833]: the “First screening IR (inhibition rate)” value is 16%.
For `CCC(NC(=O)c1cc2c(cc1Cl)N1CCCCCC1=NS2(=O)=O)c1ccc(C)cc1` (centres unmarked) [Compound Z28877665] the value was 2%.
Consider `O=C(Cc1ccc(F)cc1)N1CCN(S(=O)(=O)Cc2ccccc2)CC1` [Compound Z28905033], for which the “First screening IR (inhibition rate)” value is listed as -2%.
For `CCCn1c(NC(=O)c2ccc3c(c2)NC(=O)C(C)S3)nc2ccccc21` (centres unmarked) [Compound Z29076459] the value was 51%.
For `N#Cc1ccsc1NC(=O)CCCSc1nc2ccccc2[nH]1` [Compound Z29082077] the value was 16%; for `CCN(CC)CCn1c(NC(=O)c2cc3c(C)nn(-c4ccc(Cl)cc4)c3s2)nc2ccccc21` [Compound Z29249972], -12%; for `CCN(c1ccccc1)S(=O)(=O)c1ccc(C(=O)Nc2ccc(S(=O)(=O)N(C)C)cc2)cc1` [Compound Z29267150], 2%.
With `Cc1cnc(NC(=O)CCCc2nc3ccccc3c(=O)[nH]2)s1` [Compound Z29324663], the “First screening IR (inhibition rate)” value is reported as 9%.
For `Cc1nn(CC(C)C)c2sc(C(=O)Nc3nc(-c4ccccn4)cs3)cc12` [Compound Z29467100] the value was 0%; for `CC(C)(C)C1CCC(C(=O)Nc2nc(-c3ccccn3)cs2)CC1` (centres unmarked) [Compound Z29467784], 7%; for `COc1cccc2cc(C(=O)N3CCN(S(=O)(=O)c4ccccc4C(F)(F)F)CC3)c(=O)oc12` [Compound Z29531247], 18%.
